Results on one substance are retold here after patent publication US20040236125A1, “Novel structures and compositions comprising sterols and/or stanols and specific classes of anti-inflammatory agents and use thereof in treating or preventing cardiovascular disease, its underlying conditions including hyperlipidemia and other disorders having inflammation as part of their …” (FORBES MEDI-TECH INC., priority 2002, published 2004).

Read-outs that look alike come from different tables or passages of the source.

The subject of assay [1] is cholesterol absorption in the intestine. As to conditions: 20 mg/kg single-dose oral gavage in Intralipid 10% emulsion; blood 10 hours after gavage; FIG. 3.
Protocol: Adult male Sprague Dawley rats (˜350 g) were maintained under a 12 h light (0700-1900)/dark cycle and supplied with a laboratory standard diet and water ad libitum prior to starting the experiment.
Both groups received a single-dose oral gavage at 0700. Blood collection was performed by cardiac puncture 10 hours after oral gavage. Animals were fasted after gavage. Access to water was permitted ad libitum during the experiment. Blood obtained by cardiac puncture was collected in EDTA-coated tubes and centrifuged. Plasma samples were analyzed for [3H] cholesterol by radioactivity.
Adult male Sprague Dawley rats were given one of the derivatives of the present invention in an oral formulation containing:
20 mg/kg sterol/stanol analogue
1 mg unlabeled cholesterol
25 μCi [3H] Cholesterol in an emulsion with Intralipid 10%.
Animals were fasted 12-16 hours before and 10 hours after the oral gavage was performed. Blood samples were collected by cardiac puncture 10 hours following oral gavage. Plasma samples obtained by centrifugation were analyzed for [3H] Cholesterol and results expressed as a percentage of inhibition of cholesterol absorption in the intestine.
In addition sodium hydroxide was added to adjust the pH so that the final product pH is 8.0; pH range is 6.0 to 8.9. […] Each animal received 20 mg/kg body weight test substance dissolved in water or other appropriate solvent. […]
The target in assay [2] is COX-2 (Ovis aries, UniProt P79208). As to conditions: 4.5 μM, n=3. How it is done:
(§1) In summary, FDC-2-4 was treated with a 1:1 ratio of porcine pancreatic lipase and colipase (PL/C). Inhibition of cyclooxygenase was determined using a colorimetric (ovine) COX inhibitor screening assay. The conversion of arachidonic acid to prostaglandin H2 was monitored by a colorimetric reaction. […] Reaction was initiated by adding 100-μM arachidonic acid and 100-μM tetramethyl-p-phenylenediamine (TMPD—the colourimetric substrate). The optical density of the colored product was determined at 620 nm. Acetylsalicylate was used as a positive control in all experiments.
(§2) The solution was vortexed for 2 min. and sonicated for 5 min. before adding 2.5 mg porcine pancreatic lipase and 2.5 mg porcine colipase. The reaction was incubated at room temperature for 2 hours.
(§3) Inhibition was determined using a colorimetric (ovine) COX inhibitor screening assay (Cayman Chemicals). The conversion of arachidonic acid to prostaglandin H2 was monitored by a colorimetric reaction. COX was exposed to the inhibitors for 5 minutes. Reaction was initiated by adding 100-μM arachidonic acid and 100-μM tetramethyl-p-phenylenediamine (TMPD—the colourimetric substrate). The optical density of the colored product was determined at 620 nm 5 minutes after initiation. […] PL/C-treated FDC-2-4 was compared with non-PL/C-treated FDC-2-4 and control (no FDC-2-4 added) in determining COX inhibition. Acetylsalicylate (ASA), was used as a positive control in all experiments. Statistical Analysis on all treatment groups were done using ANOVA and Tukey Posthoc tests.

In assay [3] the target is COX-1 (Ovis aries, UniProt P05979). The following applies: 0.45 μM, n=3. How it is done: as §1, §2, §3
[4] abbreviates: PL/C-treated (pancreatic lipase/colipase).

Sequence of COX-1 (P05979 25-600): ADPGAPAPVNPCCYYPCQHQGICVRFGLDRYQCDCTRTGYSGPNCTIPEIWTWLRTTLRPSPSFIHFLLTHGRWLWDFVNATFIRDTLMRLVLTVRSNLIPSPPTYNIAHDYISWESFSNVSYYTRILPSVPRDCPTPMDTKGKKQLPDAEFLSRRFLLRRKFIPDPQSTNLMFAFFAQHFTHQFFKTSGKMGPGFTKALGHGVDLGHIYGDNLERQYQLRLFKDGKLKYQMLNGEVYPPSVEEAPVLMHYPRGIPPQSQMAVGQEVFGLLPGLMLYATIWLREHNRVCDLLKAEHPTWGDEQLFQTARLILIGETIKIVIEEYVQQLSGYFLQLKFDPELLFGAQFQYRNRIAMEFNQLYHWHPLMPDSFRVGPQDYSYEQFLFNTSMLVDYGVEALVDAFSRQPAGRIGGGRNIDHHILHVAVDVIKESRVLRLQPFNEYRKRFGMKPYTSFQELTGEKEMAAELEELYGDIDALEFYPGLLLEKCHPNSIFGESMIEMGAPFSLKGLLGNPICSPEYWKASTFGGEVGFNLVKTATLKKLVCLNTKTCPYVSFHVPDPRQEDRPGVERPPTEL
Sequence of COX-2 (P79208 17-603): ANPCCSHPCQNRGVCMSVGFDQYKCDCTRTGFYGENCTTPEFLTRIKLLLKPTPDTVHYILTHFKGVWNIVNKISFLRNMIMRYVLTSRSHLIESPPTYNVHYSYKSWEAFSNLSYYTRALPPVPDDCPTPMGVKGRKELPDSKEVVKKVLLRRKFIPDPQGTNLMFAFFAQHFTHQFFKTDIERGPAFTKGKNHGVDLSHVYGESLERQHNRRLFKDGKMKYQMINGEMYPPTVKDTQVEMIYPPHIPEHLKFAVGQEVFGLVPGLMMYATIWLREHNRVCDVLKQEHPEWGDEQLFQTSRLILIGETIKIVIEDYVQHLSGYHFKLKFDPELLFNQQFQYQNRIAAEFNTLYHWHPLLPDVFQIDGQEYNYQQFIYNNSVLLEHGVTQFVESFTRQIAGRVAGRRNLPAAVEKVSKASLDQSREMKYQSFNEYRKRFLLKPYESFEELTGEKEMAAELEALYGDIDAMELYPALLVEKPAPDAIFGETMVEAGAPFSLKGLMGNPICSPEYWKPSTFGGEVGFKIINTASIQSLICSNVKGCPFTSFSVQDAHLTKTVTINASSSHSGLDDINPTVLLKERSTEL

In the case of acetoxyphytostanyl salicylate [FDC-2-4], the “inhibition of cholesterol absorption (plasma [3H] cholesterol) compared with controls and VP4” value in assay [1] is “significantly outperforms both the controls and VP4”. In addition, the “inhibition of COX-2” value worked out at 88% in assay [2] (setting [4]) and 64% in assay [2] (non-PL/C-treated). Also, the entries for the “inhibition of COX-1 activity” value in assay [3] (setting [4]) and in assay [3] (non-PL/C-treated) were 69% and 20%, respectively.
